The nature of the data set: physchem.

This is an account of results in EP4285895A1, “NITROFURANTOIN ORAL DOSAGE FORM” (Adalvo Limited, priority 2022, dated 2023).

≈ marks a conversion by molar mass, not a printed value.

As to `O=C1CN(N=Cc2ccc([N+](=O)[O-])o2)C(=O)N1` [Macrocrystals, 1-[[[5-nitro-2-furanyl]methylene]amino]-2,4-imidazolidinedione], the solubility (as a rule, the concentration that dissolves in the medium under given conditions) reads like this: (0.01N HCl, simulated gastric fluid) 140 µg/mL (≈ 588 µM); (0.1N HCl, simulated gastric fluid) 140 µg/mL (≈ 588 µM); (acetate buffer, pH 4.5, aqueous buffer) 50 µg/mL (≈ 210 µM); (phosphate buffer, pH 6.8, aqueous buffer) 200 µg/mL (≈ 840 µM); (phosphate buffer, pH 7.5, aqueous buffer) 620 µg/mL (≈ 2600 µM); (water) 160 µg/mL (≈ 672 µM).
